Patent US9393250B2, “Phthalocyanine compounds useful as RecA inhibitors and methods of using same” (University of Saskatchewan, priority 2012, dated 2016)

Columns and labels:
[1] = system: Pseudomonas aeruginosa ATCC27853; test: Antibiotic sensitivity assay (CFUs/ml), P. aeruginosa; assay type: cell-based; settings: compound 25 μM; ciprofloxacin 6.5 μM
Protocol: (§1) Bacterial cultures were diluted to 10^5 cells/mL in LB broth (ATCC25922) or MH broth (ATCC27853, ATCC29212, ATCC29213). Antibiotics and/or phthalocyanines were added at indicated concentrations and the culture was incubated at 37° C. Samples were collected at 0, 24, 48, and 72 hours and plated on LB agar (ATCC25922) or tryptic soy blood agar (ATCC27853, ATCC29212, ATCC29213) to determine CFUs/ml.
(§2) To confirm that the activity of 4,4-Fe-PcTs was not specific to the gram-negative ATCC25922 E. coli, the ability of 4,4-Fe-PcTs to potentiate the activity of ciprofloxacin in another gram-negative (Pseudomonas aeruginosa ATCC27853) strain and two gram-positive (Staphylococcus aureus ATCC29213 and Enterococcus faecalis ATCC29212) strains was evaluated.

[2] = system: Staphylococcus aureus ATCC29213; test: Antibiotic sensitivity assay (CFUs/ml), S. aureus; assay type: cell-based; settings: compound 25 μM; ciprofloxacin 6.5 μM
Protocol: as §1, §2

[3] = system: Enterococcus faecalis ATCC29212; test: Antibiotic sensitivity assay (CFUs/ml), E. faecalis; assay type: cell-based; settings: compound 25 μM; ciprofloxacin 6.5 μM
Protocol: as §1, §2

[4] = system: SOS response (E. coli strain SS996); test: SOS induction, GFP regulated by the sulA SOS promoter, flow cytometry; assay type: cell-based, Escherichia coli; settings: 4,4-Fe-PcTs 25 μM, three hours
Protocol: To confirm that the bactericidal antibiotic potentiating activity of 4,4-Fe-PcTs was correlated with reduced SOS induction, SOS induction in the E. coli strain SS996 was monitored. This strain contains a green fluorescent protein (GFP) regulated by the sulA SOS promoter.
SS996 cultures were grown to an optical density at 600 nm (OD600) of 0.3. For cultures treated with 4,4-Fe-PcTs, the 4,4-Fe-PcTs was added to give a concentration of 25 μM and the culture was incubated for three hours at 37° C. Antibiotics were then added to yield concentrations of 2.5 μM (CFX), 40 μM (AMP), 43 μM (KAN), 21 μM (TET), 46 μM (CAM), or 808 μM (SPECT). Samples (˜10^6 cells) were taken immediately before the addition of antibiotics (time zero) and every hour for three hours. Samples were washed once in PBS, and resuspended in PBS prior to analysis by flow cytometry. GFP expression was monitored using flow cytometer (Beckman Coulter, Inc.) with a 488 nm argon laser and a 515-545 nm emission. Flow cytometry data were analyzed using Flowjo (Tree Star, Inc.).

ATCC25922 cells = test: Hydroxyl radical production (HPF, flow cytometry); assay type: cell-based, Escherichia coli; settings: 4,4-Fe-PcTs 25 μM; ciprofloxacin 40 nM; three hours
Protocol: To confirm that 4,4-Fe-PcTs inhibited the SOS response by a mechanism independent of blocking hydroxyl radical production, the ability of 4,4-Fe-PcTs to decrease hydroxyl radical levels in the presence of bactericidal antibiotics was assayed. Hydroxyphenyl fluorescein was used to measure hydroxyl radical formation in bacteria. Hydroxyl radical production was measured using flow cytometry with […] fluorescein (HPF, Invitrogen) as described previously. ATCC25922 cells were grown to OD600 of 0.3. For cultures treated with 4,4-Fe-PcTs, the 4,4-Fe-PcTs was added to give a concentration of 25 μM and the culture was incubated for three hours at 37° C. […] Samples (˜10^6 cells) were taken immediately before the addition of antibiotics (time zero) and every hour for three hours. The samples were washed once in PBS, and resuspended in PBS prior to analysis by flow cytometry. Hydroxyl radical production was monitored using a flow cytometer (Beckman Coulter, Inc.) with a 488 nm argon laser and a 515-545 nm emission. Flow cytometry data were analyzed using Flowjo (Tree Star, Inc.).

EcRecA [5] = biological target: T1, EcRecA (Escherichia coli, UniProt P0A7G6); settings: gel shift; 0, 10, 100 μM
Protocol: EcRecA (4 μM), a 1.0-kb double-stranded DNA (dsDNA) PCR product (12 μM in base pairs), and indicated concentrations of 4,4-Fe-PcTs or 3,4-Cu-PcTs were incubated in binding buffer (5 mM MgAc2, 50 mM Tris-Hepes at pH 7.6) for 10 minutes at 37° C. EcRecA bound (slower migrating) and unbound dsDNA were resolved using a 1.0% agarose gel. The gel was stained with ethidium bromide and the fluorescence emission in the gel was recorded using a Kodak GelLogic 200 system.

EcRecA [6] = biological target: T1, EcRecA; settings: in presence of ATPγS
Protocol: EcRecA (5 μM) was incubated with indicated concentrations of 4,4-Fe-PcTs or 3,4-Cu-PcTs in strand exchange buffer (2 mM ATP-γ-S(Sigma-Aldrich), 10 mM MgAc2, 100 mM KAc, 50 mM Hepes-Tris buffer at pH 7.6, 0.1% v/v 2-mercaptoethanol) for 10 minutes at 37° C. FAM43 (0.35 μM) was added and the reaction was incubated for 2 minutes. The reaction was started by the addition of 0.35 μM of the dsDNA substrate (annealing product of equimolar oligonucleotides 45A and 55A). The reaction was stopped at 30 minutes by adding EDTA to a final concentration of 20 mM and trypsin to a final concentration of 1 μg/μl. After 10 minutes, 10 μl of the reaction was mixed with 5 μl of loading buffer (30% glycerol and 0.1% bromophenol blue) and products were resolved using a 20% native acrylamide gel. The fluorescence emission in the gel was recorded using a Kodak GelLogic 200 system.

EcRecA / EcLexA = EcRecA / EcLexA (Escherichia coli, UniProt P0A7G6); settings: in presence of ATPγS
Protocol: The LexA cleavage reaction (10 μl) contained 1 μM poly-(dT)45, 2 μM EcRecA, 10 μM EcLexA, 0.1 mM ATP-γ-S, 20 mM MgAc2, 50 mM Hepes-Tris at pH 7.6 and indicated concentrations of 4,4-Fe-PcTs or 3,4-Cu-PcTs. The reaction was incubated for 120 minutes at 21° C. and stopped by the addition of 5 μl of loading buffer (30% glycerol, 10% SDS, 0.2 M Tris-HCl at pH 6.8, 0.1% v/v 2-mercaptoethanol and 0.1% w/v bromophenol blue). The products were resolved using a 13% SDS-polyacrylamide gel. The proteins were stained with Coomassie Blue-R250.

mouse bone marrow cells = test: Viability of mouse bone marrow cells; assay type: cell-based; settings: maximum concentration tested (100 μM); 24 and 48 hours
From the text: Error bars represent the standard deviation from three independent experiments.

EcRecA [7] = biological target: T1, EcRecA; settings: compound 10 μM; poly-(dT)36-stimulated; relative to reaction without inhibitor
Protocol: An ATPase assay [18] was used to screen a set of commercially available anionic, aromatic molecules for inhibitors of RecA ATPase activity. The release of inorganic phosphate by ATP hydrolysis was monitored using a Malachite Green phosphate assay [18]. The ssDNA-dependent ATPase reaction contained 1 μM EcRecA, 6 μM ssDNA (poly-(dT)36, concentration in nucleotides), 5 mM ATP, 50 mM Tris-Hepes buffer at pH 7.4, 10 mM MgCl2, 0.1% v/v 2-mercaptoethanol, and indicated amounts of 4,4-Fe-PcTs or 3,4-Cu-PcTs. Phosphate levels were measured by transferring 25 μl of ATPase reaction to 475 μl of malachite green phosphate assay, which contained 0.033% w/v Malachite Green, 1.3% w/v ammonium molybdate. 1.0 M HCl was used to monitor the release of inorganic phosphate by ATP hydrolysis [18]. The green complex formed between Malachite Green, molybdate, and free orthophosphate was measured by recording the absorbance at 620 nm.
Results are the average of two independent experiments where the deviation was less than 10%.

EcRecA [8] = biological target: T1, EcRecA; settings: gel shift; 0, 10, 100 μM; remark: listed apart in the source

T1 sequence (P0A7G6 whole entry): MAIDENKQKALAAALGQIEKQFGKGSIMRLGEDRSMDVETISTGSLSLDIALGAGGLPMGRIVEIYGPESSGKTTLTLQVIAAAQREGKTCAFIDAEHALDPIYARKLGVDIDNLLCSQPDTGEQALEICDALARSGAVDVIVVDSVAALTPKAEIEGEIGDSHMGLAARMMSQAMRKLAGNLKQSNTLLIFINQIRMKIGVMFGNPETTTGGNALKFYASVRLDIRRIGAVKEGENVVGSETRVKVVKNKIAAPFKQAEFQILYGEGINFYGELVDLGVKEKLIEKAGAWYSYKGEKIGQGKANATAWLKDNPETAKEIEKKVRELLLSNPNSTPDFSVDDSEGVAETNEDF
Sequence of EcRecA / EcLexA (P0A7G6 whole entry): as above

Substance: iron (III) phthalocyanine-4,4′,4″,4′″-tetrasulfonic acid [4,4-Fe-PcTs]
- potentiation of ciprofloxacin activity [1]: potentiated the activity of ciprofloxacin
- potentiation of ciprofloxacin activity [2]: potentiated the activity of ciprofloxacin
- potentiation of ciprofloxacin activity [3]: potentiated the activity of ciprofloxacin
- effect on ampicillin-induced SOS response (GFP) ([4]; AMP 40 μM): reduced the ability
- effect on ciprofloxacin-induced SOS response (GFP) ([4]; CFX 2.5 μM): reduced the ability
- effect on ciprofloxacin-induced hydroxyl radicals (ATCC25922 cells): did not alter
- inhibition of RecA dsDNA-binding activity (EcRecA [5]): in the micromolar range
- inhibition of DNA strand-exchange (EcRecA [6]): inhibited
- inhibition of LexA cleavage (EcRecA / EcLexA): inhibited
- toxicity to mouse bone marrow (mouse bone marrow cells): not toxic
- inhibition of EcRecA ATPase activity (EcRecA [7]): high degree of inhibition
- inhibition of RecA ssDNA-binding activity (EcRecA [8]): in the micromolar range
